Literature values, collected in patent US9636301B2, “In vitro release assay for liposome encapsulated vincristine” (ARBUTUS BIOPHARMA CORPORATION, priority 2012, dated 2017).

Conditions: water

In the case of “22-oxovincaleukoblastine [Vincristine sulfate]”, the solubility is listed as “soluble in water”.
